Assay: mn = molality of the nth substance listed, in mol/kg
Details: 101 kPa, Liquid; for mass density: Pycnometric method; for viscosity: Capillary tube (Ostwald / Ubbelohde) method; for speed of sound: Linear variable-path acoustic interferometer

CC(=O)[O-].CC(=O)[O-].[Mg+2] [magnesium acetate] + O
Details | mass density [kg/m3] | speed of sound [m/s] | viscosity [mPa·s]
305.5 K, m1 = 1.866 | 1115.1 | – | –
305.65 K, m1 = 0.646 | 1041.8 | – | –
305.85 K, m1 = 1.354 | 1086.1 | – | –
305.85 K, m1 = 5.732 | 1263.4 | – | –
305.95 K, m1 = 0.0831 | 1001 | – | –
305.95 K, m1 = 0.8751 | 1056.2 | – | –
306.3 K, m1 = 0.4247 | 1026.1 | – | –
306.4 K, m1 = 3.043 | 1171.3 | – | –
306.4 K, m1 = 3.437 | 1191.7 | – | –
306.55 K, m1 = 1.608 | 1101.3 | – | –
306.65 K, m1 = 5.165 | 1247 | – | –
306.75 K, m1 = 3.819 | 1203.4 | – | –
306.9 K, m1 = 0.1671 | 1007 | – | –
307.25 K, m1 = 2.134 | 1128.6 | – | –
307.5 K, m1 = 2.622 | 1152.1 | – | –
307.6 K, m1 = 4.547 | 1227.3 | – | –
307.65 K, m1 = 0.0414 | 997.17 | – | –
307.75 K, m1 = 1.327 | 1084 | – | –
308.05 K, m1 = 1.866 | 1114 | – | –
308.1 K, m1 = 1.106 | 1071.4 | – | –
308.15 K, m1 = 0.0414 | – | 1523.3 | 0.7529
308.15 K, m1 = 0.0831 | – | 1530.3 | 0.7775
308.15 K, m1 = 0.1671 | – | 1541.4 | 0.8306
308.15 K, m1 = 0.4247 | – | 1575.1 | 1.021
308.15 K, m1 = 0.646 | – | 1601.9 | 1.231
308.15 K, m1 = 0.8751 | – | 1631.2 | 1.45
308.15 K, m1 = 1.106 | – | 1655.9 | 1.774
308.15 K, m1 = 1.354 | – | 1677.9 | 2.139
308.15 K, m1 = 1.608 | – | 1705 | 2.139
308.15 K, m1 = 1.866 | – | 1728.9 | 3.181
308.15 K, m1 = 2.134 | – | 1754.2 | 3.943
308.15 K, m1 = 2.411 | – | 1782.5 | 5.121
308.15 K, m1 = 2.622 | – | 1791.3 | 5.819
308.15 K, m1 = 3.043 | – | 1819.5 | 8.11
308.15 K, m1 = 3.437 | – | 1847.8 | 12.3
308.15 K, m1 = 3.819 | – | 1862.6 | –
308.15 K, m1 = 4.001 | – | – | 19.17
308.15 K, m1 = 4.547 | – | 1888.8 | –
308.15 K, m1 = 4.563 | – | – | 31.43
308.15 K, m1 = 4.929 | – | – | 39.25
308.15 K, m1 = 5.165 | – | 1908 | –
308.15 K, m1 = 5.41 | – | – | 72.56
308.15 K, m1 = 5.732 | – | 1914.4 | 96.97
308.15 K, m1 = 6.187 | – | – | 175.6
308.45 K, m1 = 6.187 | 1274.5 | – | –
308.65 K, m1 = 0.646 | 1040.7 | – | –
308.65 K, m1 = 1.354 | 1085 | – | –
308.7 K, m1 = 3.437 | 1190.5 | – | –
308.75 K, m1 = 0.8751 | 1055.2 | – | –
308.75 K, m1 = 3.043 | 1170.1 | – | –
308.85 K, m1 = 5.165 | 1245.6 | – | –
308.9 K, m1 = 0.0831 | 1000 | – | –
308.95 K, m1 = 3.819 | 1202.2 | – | –
309.1 K, m1 = 2.411 | 1142.9 | – | –
309.25 K, m1 = 0.4247 | 1025.2 | – | –
309.6 K, m1 = 1.608 | 1100.1 | – | –
309.7 K, m1 = 0.1671 | 1006 | – | –
309.7 K, m1 = 4.547 | 1225.9 | – | –
309.7 K, m1 = 5.732 | 1260.8 | – | –
309.8 K, m1 = 2.134 | 1127.4 | – | –
309.95 K, m1 = 2.622 | 1151 | – | –
310.45 K, m1 = 6.187 | 1273.1 | – | –
310.6 K, m1 = 1.327 | 1082.8 | – | –
310.7 K, m1 = 1.106 | 1070.3 | – | –
310.8 K, m1 = 6.545 | 1280.7 | – | –
310.85 K, m1 = 0.0414 | 996.1 | – | –
310.85 K, m1 = 3.437 | 1189.2 | – | –
310.95 K, m1 = 5.165 | 1244.3 | – | –
311.2 K, m1 = 3.819 | 1201 | – | –
311.25 K, m1 = 3.043 | 1168.8 | – | –
311.35 K, m1 = 0.646 | 1039.6 | – | –
311.4 K, m1 = 1.354 | 1083.9 | – | –
311.65 K, m1 = 0.8751 | 1054 | – | –
311.85 K, m1 = 0.0831 | 998.98 | – | –
311.9 K, m1 = 4.547 | 1224.6 | – | –
312.1 K, m1 = 0.4247 | 1024 | – | –
312.15 K, m1 = 1.608 | 1099 | – | –
312.3 K, m1 = 6.187 | 1271.8 | – | –
312.45 K, m1 = 2.134 | 1126.3 | – | –
312.55 K, m1 = 0.1671 | 1004.8 | – | –
312.55 K, m1 = 2.622 | 1149.7 | – | –
312.7 K, m1 = 6.545 | 1279.4 | – | –
313.15 K, m1 = 0.0414 | – | 1532.2 | 0.6835
313.15 K, m1 = 0.0831 | – | 1539 | 0.7037
313.15 K, m1 = 0.1671 | – | 1547.7 | 0.7523
313.15 K, m1 = 0.4247 | – | 1582.3 | 0.9195
313.15 K, m1 = 0.646 | – | 1607.4 | 1.105
313.15 K, m1 = 0.8751 | – | 1635.6 | 1.294
313.15 K, m1 = 1.106 | – | 1659.1 | 1.573
313.15 K, m1 = 1.354 | – | 1679.3 | 1.887
313.15 K, m1 = 1.608 | – | 1704.6 | 1.887
313.15 K, m1 = 1.866 | – | 1728.4 | 2.771
313.15 K, m1 = 2.134 | – | 1752.5 | 3.404
313.15 K, m1 = 2.411 | – | 1778.6 | 4.373
313.15 K, m1 = 2.622 | – | 1787.1 | 4.948
313.15 K, m1 = 3.043 | – | 1815 | 6.797
313.15 K, m1 = 3.437 | 1188 | 1840.3 | 10.13
313.15 K, m1 = 3.819 | – | 1854.1 | –
313.15 K, m1 = 4.001 | – | – | 15.43
313.15 K, m1 = 4.547 | – | 1878.9 | –
313.15 K, m1 = 4.563 | – | – | 24.53
313.15 K, m1 = 4.929 | – | – | 30.41
313.15 K, m1 = 5.165 | – | 1896 | –
313.15 K, m1 = 5.41 | – | – | 54.06
313.15 K, m1 = 5.732 | – | – | 71.46
313.15 K, m1 = 6.187 | – | – | 120
313.35 K, m1 = 0.0414 | 995.14 | – | –
313.45 K, m1 = 1.327 | 1081.7 | – | –
313.45 K, m1 = 1.866 | 1111.6 | – | –
313.45 K, m1 = 3.819 | 1199.8 | – | –
313.5 K, m1 = 1.106 | 1069.1 | – | –
313.5 K, m1 = 3.043 | 1167.6 | – | –
313.55 K, m1 = 5.732 | 1258.3 | – | –
314 K, m1 = 4.547 | 1223.4 | – | –
314.05 K, m1 = 1.354 | 1082.8 | – | –
314.1 K, m1 = 2.411 | 1140.6 | – | –
314.25 K, m1 = 0.646 | 1038.6 | – | –
314.25 K, m1 = 6.187 | 1270.4 | – | –
314.3 K, m1 = 0.8751 | 1052.9 | – | –
314.35 K, m1 = 0.0831 | 997.91 | – | –
314.5 K, m1 = 6.545 | 1278.1 | – | –
314.65 K, m1 = 0.4247 | 1022.9 | – | –
